pIC50: −log10 of the molar value. Activity calls are given as the source filed them. The calls are words filed in the database; no cut-off is given here.
Legend:
HepG2 [1] = experiment: Decrease in cyclin E mRNA level in human HepG2 cells at 1 uM incubated for 24 hrs by RT-PCR analysis in presence of polyphyllin I relative to formosanin C alone treatment; format: functional, cell-based
[2] = Cell cycle arrest in human HepG2 cells assessed as accumulation at G1 phase at 1 uM after 24 hrs by propidium iodide staining-based flow cytometry(reference value: 55.62%); format: functional
[3] = Cytotoxicity against human HepG2 cells assessed as combination index at ED50 using 1:1 compound to polyphyllin I incubated for 24 hrs by MTT assay; format: functional
[4] = Cell cycle arrest in human HepG2 cells assessed as accumulation at G2 phase at 1 uM after 24 hrs by propidium iodide staining-based flow cytometry in presence of PPI (reference value: 2.04%); format: functional
[5] = Induction of apoptosis in human HepG2 cells assessed as upregulation of p53 mRNA level at 1 uM incubated for 24 hrs by RT-PCR analysis in presence of polyphyllin I; format: functional, cell-based
HepG2 [6] = experiment: Induction of nuclear fragmentation in human HepG2 cells at 1 uM after 24 hrs by Hoechst 33258 staining-based fluorescence microscopic analysis; format: functional, cell-based
[7] = Cytotoxicity against human Bel7402 cells assessed as combination index at ED90 using 1:1 compound to polyphyllin I incubated for 24 hrs by MTT assay; format: functional, Bel-7402
HepG2 [8] = experiment: Induction of apoptosis in human HepG2 cells at 1 uM after 24 hrs by propidium iodide staining-based flow cytometry in presence of PPI (reference value: 3.01%); format: functional
[9] = Cell cycle arrest in human HepG2 cells assessed as accumulation at G2 phase at 1 uM after 24 hrs by propidium iodide staining-based flow cytometry(reference value: 2.04%); format: functional
HepG2 [10] = experiment: Antimigratory activity in human HepG2 cells at 1 uM after 24 hrs by wound healing assay in presence of polyphyllin I; format: functional, cell-based
[11] = Cell cycle arrest in human HepG2 cells assessed as accumulation at G1 phase at 1 uM after 24 hrs by propidium iodide staining-based flow cytometry in presence of PPI (reference value: 55.62%); format: functional
HepG2 [12] = experiment: Induction of nuclear fragmentation in human HepG2 cells at 0.5 uM after 24 hrs by Hoechst 33258 staining-based fluorescence microscopic analysis in presence of polyphyllin I; format: functional, cell-based
HepG2 [13] = experiment: Increase in p21 mRNA level in human HepG2 cells at 1 uM incubated for 24 hrs by RT-PCR analysis in presence of polyphyllin I relative to formosanin C alone treatment; format: functional, cell-based
[14] = Suppression of MMP9 expression in human HepG2 cells at 1 uM after 24 hrs by Western blot analysis in presence of polyphyllin I; format: functional, cell-based
[15] = Cytotoxicity against human HepG2 cells assessed as combination index at ED90 using 1:1 compound to polyphyllin I incubated for 24 hrs by MTT assay; format: functional
HepG2 [16] = experiment: Decrease in CDK2 level in human HepG2 cells at 1 uM incubated for 24 hrs by Western blot analysis in presence of polyphyllin I; format: functional, cell-based
HepG2 [17] = experiment: Decrease in cyclin E level in human HepG2 cells at 1 uM incubated for 24 hrs Western blot analysis in presence of polyphyllin I; format: functional, cell-based
[18] = Induction of apoptosis in human HepG2 cells assessed as upregulation of caspase3 mRNA level at 1 uM incubated for 24 hrs by RT-PCR analysis in presence of polyphyllin I; format: functional, cell-based
HepG2 [19] = experiment: Induction mitochondrial membrane potential changes in human HepG2 cells at 1 uM after 24 hrs by rhodamine 123 staining-based flow cytometry in presence of polyphyllin I (reference value: 23.8+/-2.3%); format: functional
HepG2 [20] = experiment: Increase in p21 level in human HepG2 cells at 1 uM incubated for 24 hrs by Western blot analysis in presence of polyphyllin I; format: functional, cell-based
[21] = Cytotoxicity against human Bel7402 cells assessed as combination index at ED75 using 1:1 compound to polyphyllin I incubated for 24 hrs by MTT assay; format: functional, Bel-7402
HepG2 [22] = experiment: Induction of apoptosis in human HepG2 cells at 1 uM after 24 hrs by propidium iodide staining-based flow cytometry(reference value: 3.01%); format: functional
HepG2 [23] = experiment: Induction of apoptosis in human HepG2 cells assessed as downregulation of NF-kappaB […] level at 1 uM incubated for 24 hrs by RT-PCR analysis in presence of polyphyllin I; format: functional, cell-based
HepG2 [24] = experiment: Induction of cytochrome c release in human HepG2 cells by Western blot analysis; format: functional, cell-based
[25] = Induction of apoptosis in human HepG2 cells assessed as upregulation of p53 level at 1 uM incubated for 24 hrs by Western blot analysis in presence of polyphyllin I; format: functional, cell-based
HepG2 [26] = experiment: Change in PCNA mRNA level in human HepG2 cells at 1 uM incubated for 24 hrs by RT-PCR analysis in presence of polyphyllin I relative to formosanin C alone treatment; format: functional, cell-based
[27] = Cytotoxicity against human HepG2 cells assessed as combination index at ED75 using 1:1 compound to polyphyllin I incubated for 24 hrs by MTT assay; format: functional
[28] = Induction of apoptosis in human HepG2 cells assessed as upregulation of Bax level at 1 uM incubated for 24 hrs by Western blot analysis in presence of polyphyllin I; format: functional, cell-based
HepG2 [29] = experiment: Induction of chromatin compaction in human HepG2 cells at 0.5 uM after 24 hrs by Hoechst 33258 staining-based fluorescence microscopic analysis in presence of polyphyllin I; format: functional, cell-based
HepG2 [30] = experiment: Induction of Bax translocation from cytosol to mitochondria in human HepG2 cells by Western blot analysis in presence of polyphyllin I; format: functional, cell-based
[31] = Cell cycle arrest in human HepG2 cells assessed as accumulation at S phase at 1 uM after 24 hrs by […] staining-based flow cytometry in presence of PPI (reference value: 42.33%); format: functional
[32] = Induction of apoptosis in human HepG2 cells assessed as upregulation of Bax mRNA level at 1 uM incubated for 24 hrs by RT-PCR analysis in presence of polyphyllin I; format: functional, cell-based
[33] = Suppression of MMP9 expression in human HepG2 cells assessed as reduction in enzyme activity at 1 uM after 24 hrs by zymographic analysis in presence of polyphyllin I; format: functional, cell-based
[34] = Cytotoxicity against human HepG2 cells assessed as combination index at ED30 using 1:1 compound to polyphyllin I incubated for 24 hrs by MTT assay; format: functional
HepG2 [35] = experiment: Induction of chromatin compaction in human HepG2 cells at 1 uM after 24 hrs by Hoechst 33258 staining-based fluorescence microscopic analysis; format: functional, cell-based
[36] = Cytotoxicity against human Bel7402 cells after 24 hrs by MTT assay; format: functional, cell-based; conditions: Bel-7402, 24 h
HepG2 [37] = experiment: Induction mitochondrial membrane potential changes in human HepG2 cells at 1 uM after 24 hrs by rhodamine 123 staining-based flow cytometry (reference value: 23.8+/-2.3%); format: functional
HepG2 [38] = experiment: Induction of Bax translocation from cytosol to mitochondria in human HepG2 cells by Western blot analysis; format: functional, cell-based
[39] = Induction of apoptosis in human HepG2 cells assessed as upregulation of caspase3 level at 1 uM incubated for 24 hrs by Western blot analysis in presence of polyphyllin I; format: functional, cell-based
HepG2 [40] = experiment: Induction of apoptosis in human HepG2 cells assessed as downregulation of Bcl2 mRNA level at 1 uM incubated for 24 hrs by RT-PCR analysis in presence of polyphyllin I; format: functional, cell-based
[41] = Cytotoxicity against human Bel7402 cells assessed as combination index at ED50 using 1:1 compound to polyphyllin I incubated for 24 hrs by MTT assay; format: functional, Bel-7402
HepG2 [42] = experiment: Decrease in CDK2 level in human HepG2 cells at 1 uM incubated for 24 hrs by Western blot analysis in presence of polyphyllin relative to relative to polyphyllin I alone treatment; format: functional, cell-based
[43] = Cytotoxicity against human HepG2 cells after 24 hrs by MTT assay; format: functional, cell-based; conditions: HepG2, 24 h
HepG2 [44] = experiment: Change in PCNA mRNA level in human HepG2 cells at 1 uM incubated for 24 hrs by RT-PCR analysis in presence of polyphyllin I relative to polyphyllin I alone treatment; format: functional, cell-based
[45] = Cell cycle arrest in human HepG2 cells assessed as accumulation at S phase at 1 uM after 24 hrs by propidium iodide staining-based flow cytometry(reference value: 42.33%); format: functional
HepG2 [46] = experiment: Induction of cytochrome c release in human HepG2 cells by Western blot analysis in presence of polyphyllin I; format: functional, cell-based
[47] = Cytotoxicity against human Bel7402 cells assessed as combination index at ED30 using 1:1 compound to polyphyllin I incubated for 24 hrs by MTT assay; format: functional, Bel-7402

## C[C@@H]1CC[C@@]2(OC1)O[C@H]1C[C@H]3[C@@H]4CC=C5C[C@@H](O[C@@H]6O[C@H](CO)[C@@H](O[C@@H]7O[C@@H](C)[C@H](O[C@@H]8O[C@@H](C)[C@H](O)[C@@H](O)[C@H]8O)[C@@H](O)[C@H]7O)[C@H](O)[C@H]6O[C@@H]6O[C@@H](C)[C@H](O)[C@@H](O)[C@H]6O)CC[C@]5(C)[C@H]4CC[C@]3(C)[C@H]1[C@@H]2C [PENNOGENIN RAHAMNOSYL CHACOTRIOSIDE]
HepG2 [1]
  Activity: Active
[2]
  Activity: 60.9%
[3]
  CI: 0.58
[4]
  Activity: 2.63%
[5]
  Activity: Active
HepG2 [6]
  Activity: Active
[7]
  CI: 0.46
HepG2 [8]
  Activity: 7.52%
[9]
  Activity: 2.74%
HepG2 [10]
  Activity: Active
[11]
  Activity: 68.7%
HepG2 [12]
  Activity: Active
HepG2 [13]
  Activity: Active
[14]
  Activity: Active
[15]
  CI: 0.54
HepG2 [16]
  Activity: Active
HepG2 [17]
  Activity: Active
[18]
  Activity: Active
HepG2 [19]
  Activity: 40.6%
HepG2 [20]
  Activity: Active
[21]
  CI: 0.52
HepG2 [22]
  Activity: 6.96%
HepG2 [23]
  Activity: Active
HepG2 [24]
  Activity: Active
[25]
  Activity: Active
HepG2 [26]
  Activity: Active
[27]
  CI: 0.56
[28]
  Activity: Active
HepG2 [29]
  Activity: Active
HepG2 [30]
  Activity: Active
[31]
  Activity: 28.7%
[32]
  Activity: Active
[33]
  Activity: Active
[34]
  CI: 0.62
HepG2 [35]
  Activity: Active
[36]
  pIC50: 5.36
HepG2 [37]
  Activity: 32.6%
HepG2 [38]
  Activity: Active
[39]
  Activity: Active
HepG2 [40]
  Activity: Active
[41]
  CI: 0.58
HepG2 [42]
  Activity: Active
[43]
  pIC50: 5.42
HepG2 [44]
  Activity: Active
[45]
  Activity: 36.4%
HepG2 [46]
  Activity: Active
[47]
  CI: 0.67
